Drawing on patent US20120027777A1, “LJUNGAN VIRUS WITH IMPROVED REPLICATION CHARACTERISTICS” (APODEMUS AB, priority 2009, published 2012), this text covers DNA fragmentation for one molecule.

The assay has as its system GMK cells. The assay is described as follows: Cellular DNA degradation by electrophoresis. The settings on record: uninfected GMK cells, 16 h treatment, 0.5 μM, positive control. Type of assay: cell-based, Green Monkey. As for the experimental part: Degradation of chromosomal DNA is one of the hallmarks of apoptotic cells. DNA degradation in GMK cells infected with 145SL and 145SLG as well as recombinant derivatives of these viruses was assayed as previously described by with some minor modifications. Briefly, subconfluent GMK cells in T25-flasks were infected with 0.5 mL of virus lysates generated from viral cDNA clones by transfection and subsequent blind passage as previously described. […] Lysis of cells was induced using 0.2% Triton X-100, 0.5 mM EDTA in 10 mM Tris-HCl, pH 7.4. Fragmented chromatin was released from cell nuclei by vortexing. The nucleic components were separated (20,000×g for 10 min at 4° C.) and the nucleic acids in the supernatant fraction were precipitated. After precipitation, the nucleic acids were washed in 70% ethanol and dissolved in 50 μl TE buffer (1 mM EDTA, 10 mM Tris-HCl, pH 7.4). The RNA fraction of isolated nucleic acids was degraded using RNase A (10 μg/ml for 30 min at 37° C.). Finally, 1 μg isolated nucleic acids of each sample were separated by electrophoresis in a 1.5% agarose gel. Apoptosis in control cells was induced by a 16 h treatment of GMK cells with 0.5 μM staurosporine (Sigma), a broad spectrum protein kinase inhibitor [10]. The nucleic acids from these control cells were otherwise treated in the same way as described for cells infected with LV.

For the molecule `CN[C@@H]1C[C@H]2O[C@@](C)([C@@H]1OC)n1c3ccccc3c3c4c(c5c6ccccc6n2c5c31)C(=O)NC4` [staurosporine], the DNA fragmentation entry is listed as “expected processing of the nuclear DNA”.
